Reference: paper PMC10080127, “Metabolic stability and metabolite profiling of emerging synthetic cathinones” (Frontiers in Pharmacology, 2023)

Tests used:
[1] = Metabolic stability (substrate depletion) in human liver microsome Phase I incubations; details: for intrinsic clearance (CLint): HLM incubations, scaled with 45 mg microsomal protein/g liver and 26 g liver/kg b.w.; for half-life at 10 μM: human, human liver microsomes
[2] = Phase II (glucuronidation) metabolite generation in alamethicin-induced HLM with NADPH and UDPGA; assay type: in vitro ADME, human; details: 2 h, LC-HRMS/MS
Experimental: For the generation of Phase II metabolites, alamethicine-induced HLM ([Fisher et al., 2000]) were used in the presence of Phase I and glucuronidation co-factor. Briefly, HLM (1 mg/mL) were preincubated for 15 min, in ice, with alamethicin (25 μg/mL) in 50 mM ABIC buffer at pH 7.4, for a total incubation volume of 200 μL. Following the addition of MgCl2 (2 mM; 1 μL) and selected cathinone (10 μM final concentration), the resulting solution was incubated for 5 min at 37°. NADPH (5 mM) and UDPGA (5 mM) were then added to start the Phase I and II reactions. Incubations were run in duplicate.
An in-house accurate mass library was first built, considering the metabolic pathways already known for other structurally similar cathinones, and a targeted screening was then carried out by performing extracted ion chromatograms (EIC), with a mass window of ±5 ppm, for the protonated/deprotonated molecules of the expected metabolites in the full scan spectra. Isotope cluster analysis was also used to identify chlorinated metabolites. All spectra corresponding to metabolites were then manually checked. The mass deviation from the accurate mass of the identified cathinone metabolites remained below 5 ppm for the precursor and below 10 ppm for product ions. Candidates present in control incubations and/or without MS/MS data were excluded. […] Metabolites were ranked based on their relative abundance over incubation time (Figures 2–9). The relative abundance was calculated by the ratio of the relative area of each metabolite and the sum of the relative areas obtained for all metabolites and for the respective parent cathinone.

[3] = parameters: method as in Wagmann et al., 2020; details: ref Wagmann et al., 2020; cited from earlier work
[4] = pH 7.4, half-life (t1/2), HLM 1 mg/mL, cathinone 10 μM, NADPH, 37°C, pH 7.4
[5] = pH 7.4, clearance classification based on t1/2, HLM, scoring proposed by McNaney et al. (2008)

SMILES | intrinsic clearance (CLint) [1] | half-life at 10 μM [1, 4] | Phase II (glucuronide) metabolites identified [2] | half-life (t1/2) reported [3] | half-life at 10 μM [1, 5]
CC(C)NC(C)C(=O)c1cccc(Cl)c1 (stereo not shown) [3-CIC, 3′-chloro-N-isopropylcathinone] | 34 mLmin^−1 kg^−1 | 24 min | – | – | –
CNC(C)C(=O)c1cccc(Cl)c1 (stereo not shown) [3-CMC, 3′-chloromethcathinone] | 15 mLmin^−1 kg^−1 | 54 min | No Phase II metabolites were identified | – | –
CCNC(C)C(=O)c1ccc(Cl)cc1 (stereo not shown) [4-CEC, 4-chloroethcathinone] | – | – | – | 105 min | –
CC(C)NC(C)C(=O)c1ccc(Cl)cc1 (stereo not shown) [4-CIC, 4′-chloro-N-isopropylcathinone] | 22 mLmin^−1 kg^−1 | 36 min | – | – | –
CNC(C)C(=O)c1ccc(Cl)cc1 (stereo not shown) [4-CMC, 4′-chloromethcathinone] | 10 mLmin^−1 kg^−1 | 78 min | no Phase II metabolite was identified | – | > 60 min
CCC(C(=O)c1ccc(C)cc1)N(C)C (stereo not shown) [4-MDMB, 4′-methyl-N,N-dimethylbufedrone] | 54 mLmin^−1 kg^−1 | 15 min | No Phase II metabolite was detected | – | < 20 min
CCCC(C(=O)c1ccc(C)cc1)N(C)C (stereo not shown) [4-MDMP, 4′-methyl-N,N-dimethylpentedrone] | 18 mLmin^−1 kg^−1 | 46 min | No Phase II metabolites were identified | – | –
CCCC(NCC)C(=O)c1ccc(C)cc1 (stereo not shown) [4-MEAP, 4′-methyl-N-ethylnorpentedrone] | 33 mLmin^−1 kg^−1 | 24 min | no glucuronide metabolite was identified | – | –
CCNC(CC)C(=O)c1ccc(C)cc1 (stereo not shown) [4-MNEB, 4′-methyl-N-ethylbufedrone] | 16 mLmin^−1 kg^−1 | 55 min | No Phase II metabolites were identified | – | –
